Laboratory results: US20240174655A1, “INDAZOLE DERIVATIVES AS ANTAGONISTS OF THE MUSCARINIC ACETYLCHOLINE RECEPTOR M4” (Vanderbilt University, priority 2021, published 2024)

Biological target: T1, Human M4 (Homo sapiens, UniProt P08173)
T1 construct: expressed in transfected cells; host or cells: CHO-K1 (Chinese hamster ovary, ATCC), stably expressing M4 and Gqi5
T1 sequence (P08173 1-479): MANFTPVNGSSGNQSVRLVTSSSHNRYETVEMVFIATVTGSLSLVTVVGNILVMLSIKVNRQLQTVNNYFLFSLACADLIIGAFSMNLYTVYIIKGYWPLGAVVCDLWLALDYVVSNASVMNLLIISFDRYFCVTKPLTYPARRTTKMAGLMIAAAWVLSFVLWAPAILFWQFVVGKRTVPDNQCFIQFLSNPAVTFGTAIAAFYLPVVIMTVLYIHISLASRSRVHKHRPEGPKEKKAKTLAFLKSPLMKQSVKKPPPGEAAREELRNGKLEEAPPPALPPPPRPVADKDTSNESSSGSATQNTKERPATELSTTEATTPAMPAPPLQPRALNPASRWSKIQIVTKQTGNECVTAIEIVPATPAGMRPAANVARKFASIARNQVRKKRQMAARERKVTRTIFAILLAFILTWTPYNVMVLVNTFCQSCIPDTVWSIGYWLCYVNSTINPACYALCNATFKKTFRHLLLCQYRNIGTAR
Experiment: mAChR M4 cell-based functional assay (calcium flux, EC80 acetylcholine response)
Conditions: M4/Gqi5/CHO-K1 cells; for remaining activity at 30 µM: % ACh maximum at 30 μM, read-out: Human M4 Emin (% ACh maximum at 30 μM); for IC50: decrease of the response to an EC80 concentration of acetylcholine, read-out: Human M4 IC50
Procedure: Human or rat M4 cDNA, along with the chimeric G protein Gqi5, were transfected into Chinese hamster ovary (CHO-K1) cells purchased from the American Type Culture Collection using Lipofectamine2000. M4/Gqi5/CHO cells were grown in Ham's F-12 medium containing […] heat-inactivated fetal bovine serum (FBS), 20 mM HEPES, 500 μg/mL G418 sulfate, and 200 μg/mL Hygromycin B.
For high throughput measurement of agonist-evoked increases in intracellular calcium, CHO-K1 cells stably expressing muscarinic receptors were plated in growth medium lacking G418 and hygromycin at 15,000 cells/20 μL/well in Greiner 384-well black-walled, tissue culture (TC)-treated, clear-bottom plates (VWR). Cells were incubated overnight at 37° C. and 500 CO2. […] Compound master plates were formatted in a 10 point concentration-response curve (CRC) format (1:3 dilutions) in 100% DMSO with a starting concentration of 10 or 1 mM using a BRAVO liquid handler (Agilent). Test compound CRCs were then transferred to daughter plates (240 nL) using the Echo acoustic plate reformatter (Labcyte, Sunnyvale, CA) and then diluted into assay buffer (40 μL) to a 2× stock using a Thermo Fisher Combi (Thermo Fisher Scientific, Waltham, MA).
Calcium flux was measured using the Functional Drug Screening System (FDSS) 6000 or 7000 (Hamamatsu Corporation, Tokyo, Japan) as an increase in the fluorescent static ratio. Compounds were applied to cells (20 μL, 2×) using the automated system of the FDSS at 2 seconds into the protocol and the data were collected at 1 Hz. […] Agonist activity was analyzed as a concentration-dependent increase in calcium mobilization upon compound addition. Positive allosteric modulator activity was analyzed as a concentration-dependent increase in the EC20 acetylcholine response. Antagonist activity was analyzed as a concentration-dependent decrease in the EC80 acetylcholine response; for the purposes of the tables herein, an IC50 (inhibitory concentration 50) was calculated as a concentration-dependent decrease of the response elicited by an EC80 concentration of acetylcholine. Concentration-response curves were generated using a four-parameter logistical equation in XLFit curve fitting software (IDBS, Bridgewater, NJ) for Excel (Microsoft, Redmond, WA) or Prism (GraphPad Software, Inc., San Diego, CA) or the Dotmatics software platform (Dotmatics, Bishop's Stortford, UK).
Compounds were synthesized as described above.

remaining activity at 30 µM [%]	IC50 [nM]	SMILES
2	0.41	[2H]C([2H])([C@H]1CCCCO1)N1C[C@H]2C[C@H](Nc3ccc(-c4ccc5nn(C)cc5c4C)nn3)C[C@H]2C1 [compound 11, (3aR,5s,6aS)-N-(6-(2,4-dimethyl-2H-indazol-5-yl)pyridazin-3-yl)-2-(((R)-tetrahydro-2H-pyran-2-yl)-methyl-d2)octahydrocyclopenta[c]pyrrol-5-amine]
3	2.7	Cc1cc2nn(C)cc2cc1-c1ccc(N[C@H]2C[C@@H]3CN(CC4CCOCC4)C[C@@H]3C2)nn1 [compound 1, (3aR,5s,6aS)-N-(6-(2,6-dimethyl-2H-indazol-5-yl)pyridazin-3-yl)-2-((tetrahydro-2H-pyran-4-yl)methyl)octahydrocyclopenta[c]pyrrol-5-amine]
3	0.42	[2H]C([2H])([C@H]1COCCO1)N1C[C@H]2C[C@H](Nc3ccc(-c4ccc5nn(C)cc5c4C)nn3)C[C@H]2C1 [compound 15, (3aR,5s,6aS)-2-(((S)-1,4-dioxan-2-yl)-methyl-d2)-N-(6-(2,4-dimethyl-2H-indazol-5-yl)-pyridazin-3-yl)octahydrocyclopenta[c]pyrrol-5-amine]
3	0.21	[2H]C1([2H])CC(C([2H])([2H])N2C[C@H]3C[C@H](Nc4nnc(-c5ccc6nn(C)cc6c5C)cc4C)C[C@H]3C2)CC([2H])([2H])O1 [compound 24, (3aR,5s,6aS)-N-(6-(2,4-dimethyl-2H-indazol-5-yl)-4-methylpyridazin-3-yl)-2-((tetrahydro-2H-pyran-4-yl-2,2,6,6-d4)methyl-d2)octahydrocyclopenta[c]pyrrol-5-amine]
3	8.9	[2H]C([2H])([C@@H]1COCCO1)N1C[C@H]2C[C@H](Nc3ccc(-c4ccc5nn(C)cc5c4C)nn3)C[C@H]2C1 [compound 16, (3aR,5s,6aS)-2-(((R)-1,4-dioxan-2-yl)-methyl-d2)-N-(6-(2,4-dimethyl-2H-indazol-5-yl)pyridazin-3-yl)octahydrocyclopenta[c]pyrrol-5-amine]
2		Cc1c(-c2cc(C(F)(F)F)c(N[C@H]3C[C@@H]4CN(CC5CCOCC5)C[C@@H]4C3)nn2)ccc2nn(C)cc12 [compound 30, (3aR,5s,6aS)-N-(6-(2,4-dimethyl-2H-indazol-5-yl)-4-(trifluoromethyl)-pyridazin-3-yl)-2-((tetrahydro-2H-pyran-4-yl)methyl)-octahydrocyclopenta[c]pyrrol-5-amine]
4	0.41	Cc1c(-c2ccc(N[C@H]3C[C@@H]4CN(CC5CCOCC5)C[C@@H]4C3)nn2)ccc2nn(C)cc12 [compound 2, (3aR,5s,6aS)-N-(6-(2,4-dimethyl-2H-indazol-5-yl)pyridazin-3-yl)-2-((tetrahydro-2H-pyran-4-yl)methyl)octahydrocyclopenta[c]pyrrol-5-amine]
10	1.1	[2H]C([2H])(C1CCOCC1)N1C[C@H]2C[C@H](Nc3ccc(-c4ccc5nn(C)cc5c4C(F)(F)F)nn3)C[C@H]2C1 [compound 8, (3aR,5s,6aS)-N-(6-(2-methyl-4-(trifluoromethyl)-2H-indazol-5-yl)-pyridazin-3-yl)-2-((tetrahydro-2H-pyran-4-yl)methyl-d2)octahydrocyclopenta[c]pyrrol-5-amine]
2	0.33	[2H][C@@]1(Nc2ccc(-c3ccc4nn(C)cc4c3C)nn2)C[C@H]2CN(CC3CCOCC3)C[C@H]2C1 [compound 3, (3aR,5s,6aS)-N-(6-(2,4-dimethyl-2H-indazol-5-yl)pyridazin-3-yl)-2-((tetrahydro-2H-pyran-4-yl)methyl)octahydrocyclopenta[c]pyrrol-5-d-5-amine]
2	0.36	[2H]C([2H])(C1CCOCC1)N1C[C@H]2C[C@H](Nc3ccc(-c4ccc5nn(C(F)F)cc5c4C)nn3)C[C@H]2C1 [compound 10, (3aR,5s,6aS)-N-(6-(2-(difluoromethyl)-4-methyl-2H-indazol-5-yl)pyridazin-3-yl)-2-((tetrahydro-2H-pyran-4-yl)methyl-d2)octahydrocyclopenta[c]pyrrol-5-amine]
3	0.79	[2H]C([2H])([C@H]1CCCOC1)N1C[C@H]2C[C@H](Nc3ccc(-c4ccc5nn(C)cc5c4C)nn3)C[C@H]2C1 [compound 14, (3aR,5s,6aS)-N-(6-(2,4-dimethyl-2H-indazol-5-yl)pyridazin-3-yl)-2-(((R)-tetrahydro-2H-pyran-3-yl)methyl-d2)octahydrocyclopenta-[c]pyrrol-5-amine]
5	5	[2H]C([2H])(C1CC(C)(C)OC(C)(C)C1)N1C[C@H]2C[C@H](Nc3ccc(-c4ccc5nn(C)cc5c4C)nn3)C[C@H]2C1 [compound 19, (3aR,5s,6aS)-N-(6-(2,4-dimethyl-2H-indazol-5-yl)pyridazin-3-yl)-2-((2,2,6,6-tetramethyltetrahydro-2H-pyran-4-yl)methyl-d2)octahydrocyclopenta[c]pyrrol-5-amine]
3	2.2	Cc1c(-c2ccc(N[C@H]3C[C@@H]4CN(Cc5ccccn5)C[C@@H]4C3)nn2)ccc2nn(C)cc12 [compound 4, (3aR,5s,6aS)-N-(6-(2,4-dimethyl-2H-indazol-5-yl)pyridazin-3-yl)-2-(pyridin-2-ylmethyl)octahydrocyclopenta[c]pyrrol-5-amine]
3	0.59	[2H]C([2H])(C1CCOCC1)N1C[C@H]2C[C@H](Nc3ccc(-c4ccc5nn(C)cc5c4C)nn3)C[C@H]2C1 [compound 6, (3aR,5s,6aS)-N-(6-(2,4-dimethyl-2H-indazol-5-yl)pyridazin-3-yl)-2-((tetrahydro-2H-pyran-4-yl)methyl-d2)octahydrocyclopenta[c]pyrrol-5-amine]
4	0.65	[2H]C([2H])(C1CCOCC1)N1C[C@H]2C[C@H](Nc3ccc(-c4ccc5nn(C([2H])([2H])[2H])cc5c4C(F)F)nn3)C[C@H]2C1 [compound 22, (3aR,5s,6aS)-N-(6-(4-(difluoromethyl)-2-(methyl-d3)-2H-indazol-5-yl)pyridazin-3-yl)-2-((tetrahydro-2H-pyran-4-yl)methyl-d2)octahydrocyclopenta[c]pyrrol-5-amine]
3	0.9	[2H]C([2H])(C1CCOCC1(C)C)N1C[C@H]2C[C@H](Nc3ccc(-c4ccc5nn(C)cc5c4C)nn3)C[C@H]2C1 (stereo partly drawn) [compound 17, (3aR,5s,6aS)-N-(6-(2,4-dimethyl-2H-indazol-5-yl)pyridazin-3-yl)-2-((3,3-dimethyltetrahydro-2H-pyran-4-yl)methyl-d2)octahydrocyclopenta[c]pyrrol-5-amine]
3		Cc1c(-c2cc(C(F)F)c(N[C@H]3C[C@@H]4CN(CC5CCOCC5)C[C@@H]4C3)nn2)ccc2nn(C)cc12 [compound 29, (3aR,5s,6aS)-N-(4-(difluoromethyl)-6-(2,4-dimethyl-2H-indazol-5-yl)pyridazin-3-yl)-2-((tetrahydro-2H-pyran-4-yl)methyl)octahydrocyclopenta[c]pyrrol-5-amine]
